According to patent publication US20180371044A1, “PEPTIDOMIMETIC MACROCYCLES” (Aileron Therapeutics, Inc., priority 2015, published 2018):
Where a SMILES comes first, the peptide text is derived from it. Bridges are numbered along the chain shown (N, C = ends). [ ]: non-standard residue; d: D form. S5 = C=CCCC[C@](C)(N)C(=O)O; Nle = CCCC[C@H](N)C(=O)O

Assays:
[1] = Plasma PK/PD study in rats; assay type: in vivo, rat; settings: male Sprague-Dawley rats
Method: Five peptidomimetic macrocycles of the invention, as well as sermorelin, were studied to determine pharmacokinetic and pharmacodynamic parameters in rats. Male Sprague-Dawley rats (300 g, non-fasted, cannulated) were used. The study had three arms: IV administration, SC administration, and SC administration (vehicle control). For experiments using sermorelin, a dose level of 3 mg/kg IV/SC bolus was used (dose volume of […] dose and dose concentration of 1 mg/mL). The vehicle used was: 10 wt % N, N-Dimethylacetamide, 10 wt % DMSO, 2 wt % Solutol HS 15 in water for injection containing 45 mg/mL (4.5 wt %) Mannitol and 25 mM (0.38 wt %) Histidine (pH 7.5; 320 mOsm/kg). The peptide was first dissolved at high concentration in DMA and DMSO before a second dilution in Solutol vehicle.
For experiments using peptidomimetic macrocycles, 0.1 mL of DMA and 0.1 mL of DMSO were used to combine with each mg of macrocycle (˜4.3-4.5 mg of macrocycle used in each experiment). Sonication was used to ensure complete solubilization. 0.8 mL of Solutol vehicle was used for each mg of macrocycle in DMA/DMSO. The solutions were mixed gently with pipet or light vortexing. Fresh vials were used for each day of dosing, and macrocycles were stored solid at −20° C. prior to formulation.
For each study arm, 2 rats were bled (350 μL) at specific time points (5 min, 15 min, 30 min, 1 h, 2 h, 4 h, 8 h, 24 h, and 48 h) and a 150 μL bleed was performed just before dosing. Plasma was prepared into K2EDTA tubes by centrifuging for 20 minutes at 4° C. at 2000G maximum 30 minutes after collection. From each 350 μL bleed, 120 μL were transferred to one tube for PK studies and 50 μL to another tube for PD studies and frozen immediately. From the 150 μL bleed, 70 μL were transferred to one tube for PD studies and frozen immediately.

Plasma compatibility = assay type: physicochemical
Method: The plasma compatibility of exemplary peptidomimetic macrocycles was also determined. Peptidomimetic macrocycles with a plasma compatability value (PC) that is greater than 0.1 were determined as being plasma compatible.

[2] = biological target: T1, VIPR1 (Vasointestinal Peptide Receptor 1) (Homo sapiens, UniProt P32241); test: DiscoverX cAMP Hunter eXpress VIPR1 CHO-K1 GPCR assay; assay type: cell-based; settings: VIPR1 CHO-K1 cells
T1 construct: host or cells: CHO-K1 (cAMP Hunter eXpress VIPR1 CHO-K1 GPCR assay kit)
T1 sequence (P32241 31-457): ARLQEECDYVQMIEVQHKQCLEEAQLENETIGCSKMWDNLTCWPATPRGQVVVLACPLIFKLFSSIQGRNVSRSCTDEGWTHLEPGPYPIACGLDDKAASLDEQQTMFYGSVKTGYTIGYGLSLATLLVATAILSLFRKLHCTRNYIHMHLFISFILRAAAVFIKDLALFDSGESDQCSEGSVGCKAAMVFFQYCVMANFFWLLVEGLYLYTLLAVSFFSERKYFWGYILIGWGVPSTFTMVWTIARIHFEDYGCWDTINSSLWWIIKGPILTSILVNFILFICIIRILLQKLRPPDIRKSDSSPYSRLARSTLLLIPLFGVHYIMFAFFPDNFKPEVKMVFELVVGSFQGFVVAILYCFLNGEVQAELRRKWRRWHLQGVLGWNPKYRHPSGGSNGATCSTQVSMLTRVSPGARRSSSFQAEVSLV
Source text: DiscoverX cAmP Hunter eXpress VIPRI CHO-K1 GPCR and GHRHR CHO-K1 GPCR assays kits were used. The DiscoverX kits contain naturally coupled GPCR cell lines designed to detect GPCR signaling through second messenger activation. This signaling involves a membrane bound enzyme called adenylate cyclase. […] receptors modulate cAMP by either inhibiting or stimulating adenylate cyclase, respectively. The DiscoverX cell lines included in the kits utilize the natural coupling status of the GPCR to monitor activation of […] receptors. Following ligand stimulation, the functional status of the GPCR is monitored by measuring cellular cAMP levels using a homogeneous, gain of signal competitive immunoassay based on Enzyme Fragment Complementation (EFC). The amount of EFC is measured by analysis with a fluorescent plate reader.
On the day before the assay, the DiscoverX cell lines were defrosted, plated into 384 well plates and allowed to incubate overnight. All the samples were diluted to 2 mM using 100% DMSO. The vials were sonicated and centrifuged to assure all peptides went into solution. The final volumes were small, 80-200 μl. An 80% purity and peptide content was assumed for all samples and dilutions were based on the molecular weights. On the day of the assay, the samples were diluted to 200 μM in water and then to 4 μM in DiscoverX assay buffer (supplemented with 0.1% BSA). Serial dilutions were performed on assay day, 16 dilutions from 1000 nM were run side by side in duplicate for each peptide for study. The assays were performed in the 384 well plates with the assistance of a CyBio Bi-Well 384 channel liquid handling robot. The samples were analyzed on a Tecan Ultra Evolution plate reader according to DiscoverX guidelines. The EC50 values were determined using GraphPad Prism software. The EC50 value is defined as the concentration of agonist that provokes a response halfway between the baseline and maximum response.
DiscoverX™ cAmP Hunter eXpress VIPR1 CHO-K1 GPCR and GHRHR CHO-K1 GPCR assay kits were used. On the day before the assay, the DiscoverX™ cell lines were defrosted, plated into 384 well plates and allowed to incubate overnight. All the samples were diluted to 2 mM using 100% DMSO. The vials were sonicated and centrifuged to assure all peptides went into solution. The final volumes were small, 80-200 μl. An 80% purity and peptide content was assumed for all samples and dilutions were based on the molecular weights. On the day of the assay, the samples were diluted to 200 μM in water and then to 4 μM in DiscoverX™ assay buffer (supplemented with 0.1% BSA). Serial dilutions were performed on assay day, 16 dilutions from 1000 nM were run side by side in duplicate for each peptide for study. The assays were performed in the 384 well plates with the assistance of a CyBio™ Bi-Well 384 channel liquid handling robot. The samples were analyzed on a Tecan™ Ultra Evolution plate reader according to DiscoverX™ guidelines. The EC50 values were determined using GraphPad™ Prism software. The EC50 value is defined as the concentration of agonist that provokes a response halfway between the baseline and maximum response. (+=>25 nM; ++=>10-25 nM; +++=>1-10 nM; ++++=>0.1-1 nM; +++++=<0.1 nM). […]

| Compound | AUC Ext (%) [1] [%] | MRT ([1]; rat, 3 mg/kg) [h] | clearance ([1]; rat, 3 mg/kg, read-out: Clp (converted)) [mL/min/kg] | Vd ([1]; rat, 3 mg/kg, read-out: Vdss) [L/kg] | half-life ([1]; rat, 3 mg/kg, read-out: t ½ (converted)) [h] | AUC(0-inf) ([1]; rat, 3 mg/kg, route not given) [ng·h/mL] | Plasma Compatability (Plasma compatibility) [mg/mL] | EC50 [2] [nM] |
| --- | --- | --- | --- | --- | --- | --- | --- | --- |
| CC/C=C/CC(=O)N[C@@H](Cc1ccc(O)cc1)C(=O)N[C@@H](C)C(=O)N[C@@H](CC(=O)O)C(=O)N[C@@H](C)C(=O)N[C@H](C(=O)N[C@@H](Cc1ccccc1)C(=O)N[C@H](C(=O)N[C@@H](CC(N)=O)C(=O)N[C@@H](CO)C(=O)N[C@@H](Cc1ccc(O)cc1)C(=O)N[C@@H](CCCNC(=N)N)C(=O)N[C@@H](CCCCN)C(=O)N[C@H](C(=O)N[C@@H](CC(C)C)C(=O)NCC(=O)N[C@@H](CCC(N)=O)C(=O)N[C@@H](CC(C)C)C(=O)N[C@@H](CO)C(=O)N[C@@H](C)C(=O)N[C@@H](CCCNC(=N)N)C(=O)N[C@@H](CCCCN)C(=O)N[C@@H](CC(C)C)C(=O)N[C@@H](CC(C)C)C(=O)N[C@@H](CCC(N)=O)C(=O)N[C@@H](CC(=O)O)C(=O)N[C@H](C(=O)N[C@@H](CCSC)C(=O)N[C@@H](CO)C(=O)N[C@@H](CCCNC(=N)N)C(=O)N[C@@H](CCC(N)=O)C(=O)N[C@@H](CCC(N)=O)C(=O)NCC(=O)N[C@@H](CCC(=O)O)C(=O)N[C@@H](CO)C(=O)N[C@@H](CC(N)=O)C(=O)N[C@@H](CCC(N)=O)C(=O)N[C@@H](CCC(=O)O)C(=O)N[C@@H](CCCNC(=N)N)C(=O)NCC(=O)N[C@@H](C)C(=O)N[C@@H](CCCNC(=N)N)C(=O)N[C@@H](C)C(=O)N[C@@H](CCCNC(=N)N)C(=O)N[C@@H](CC(C)C)C(N)=O)[C@@H](C)CC)C(C)C)[C@@H](C)O)[C@@H](C)CC [SP-1, reference compound] | 13.8 | 1.6 | 2.85 | 0.267 | 55.1 | 17500 | 3.5 |  |
| CCCC[C@H](NC(=O)[C@@H](NC(=O)[C@H](CC(=O)O)NC(=O)[C@H](CCC(N)=O)NC(=O)[C@H](CC(C)C)NC(=O)[C@H](C)NC(=O)[C@H](CCCCN)NC(=O)[C@H](CCCNC(=N)N)NC(=O)[C@H](C)NC(=O)[C@H](CO)NC(=O)[C@]1(C)CCCC=CCCC[C@](C)(NC(=O)[C@H](CCCCN)NC(=O)[C@H](CCCNC(=N)N)NC(=O)[C@H](Cc2ccc(O)cc2)NC(=O)[C@H](CO)NC(=O)[C@H](CCC(N)=O)NC(=O)[C@@H](NC(=O)[C@H](Cc2ccccc2)NC(=O)[C@@H](NC(=O)[C@H](C)NC(=O)[C@H](CC(=O)O)NC(=O)[C@@H](C)NC(=O)[C@@H](N)Cc2ccc(O)cc2)[C@@H](C)CC)[C@@H](C)O)C(=O)N[C@@H](CC(C)C)C(=O)N[C@@H](C)C(=O)N[C@@H](C)C(=O)N1)[C@@H](C)CC)C(=O)N[C@@H](CO)C(=O)N[C@@H](CCCNC(=N)N)C(N)=O [SP-104] (H-Y[dA]DAIFTQSYRK[S5]LAA[S5]SARKALQDI[Nle]SR-NH2; staple 13-17) |  |  |  |  |  |  | 1.2 |  |
| CC[C@H](C)[C@H](NC(=O)[C@H](C)NC(=O)[C@H](CC(=O)O)NC(=O)[C@H](C)NC(=O)[C@@H](N)Cc1ccc(O)cc1)C(=O)N[C@@H](Cc1ccccc1)C(=O)N[C@H](C(=O)N[C@@H](CC(N)=O)C(=O)N[C@@H](CO)C(=O)N[C@@H](Cc1ccc(O)cc1)C(=O)N[C@@H](CCCNC(=N)N)C(=O)N[C@@H](CCCCN)C(=O)N[C@H](C(=O)N[C@@H](CC(C)C)C(=O)NCC(=O)N[C@@H](CCC(N)=O)C(=O)N[C@@H](CC(C)C)C(=O)N[C@@H](CO)C(=O)N[C@@H](C)C(=O)N[C@@H](CCCNC(=N)N)C(=O)N[C@@H](CCCCN)C(=O)N[C@@H](CC(C)C)C(=O)N[C@@H](CC(C)C)C(=O)N[C@@H](CCC(N)=O)C(=O)N[C@@H](CC(=O)O)C(=O)N[C@H](C(=O)N[C@@H](CCSC)C(=O)N[C@@H](CO)C(=O)N[C@@H](CCCNC(=N)N)C(N)=O)[C@@H](C)CC)C(C)C)[C@@H](C)O [SP-2, reference compound] |  |  |  |  |  |  | 4.6 | 0.1 to 1 |
